The values below come from patent US7776558B2, “Human G protein-coupled receptor and modulators thereof for the treatment of cell death-related disorders” (Arena Pharmaceuticals, Inc., priority 2003, dated 2010).

Entries after “also recorded” stand apart in the source; their conditions may differ. Where no end group is shown, it is not given here.

Test [1] deals with T1, FPRL2 (Homo sapiens, UniProt P25089).
T1 sequence (P25089 1-353): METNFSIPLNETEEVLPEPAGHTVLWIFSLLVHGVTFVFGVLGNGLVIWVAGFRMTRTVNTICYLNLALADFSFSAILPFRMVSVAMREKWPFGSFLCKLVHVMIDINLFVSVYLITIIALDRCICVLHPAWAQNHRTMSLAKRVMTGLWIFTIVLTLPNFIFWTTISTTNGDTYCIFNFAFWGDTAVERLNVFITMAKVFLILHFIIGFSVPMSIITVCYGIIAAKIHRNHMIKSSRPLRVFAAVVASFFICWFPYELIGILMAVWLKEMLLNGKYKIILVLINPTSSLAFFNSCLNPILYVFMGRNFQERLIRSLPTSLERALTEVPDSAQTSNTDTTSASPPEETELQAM
The test is described as follows: Whole cell adenylate cyclase (cAMP) assay, stably transfected HEK293 cells. It counts as cell-based. The arrangement: expressed in transfected cells. The conditions noted are these: in the presence of 5 μM forskolin, FIG. 6. An excerpt:
A Flash Plate™ Adenylyl Cyclase kit (New England Nuclear; Cat. No. SMP004A) designed for cell-based assays can be modified for use with crude plasma membranes. The Flash Plate wells can contain a scintillant coating which also contains a specific antibody recognizing cAMP. The cAMP generated in the wells can be quantitated by a direct competition for binding of radioactive cAMP tracer to the cAMP antibody. The following serves as a brief protocol for the measurement of changes in cAMP levels in whole cells that express the receptors.
Transfected cells are harvested approximately twenty four hours after transient transfection. Media is carefully aspirated off and discarded. 10 ml of PBS is gently added to each dish of cells followed by careful aspiration. 1 ml of Sigma cell dissociation buffer and 3 ml of PBS are added to each plate. Cells are pipetted off the plate and the cell suspension is collected into a 50 ml conical centrifuge tube. Cells are then centrifuged at room temperature at 1,100 rpm for 5 min. The cell pellet is carefully re-suspended into an appropriate volume of PBS (about 3 ml/plate). The cells are then counted using a hemocytometer and additional PBS is added to give the appropriate number of cells (with a final volume of about 50 μl/well).
cAMP standards and Detection Buffer (comprising 1 μCi of tracer [^125I cAMP (50 μl] to 11 ml Detection Buffer) is prepared and maintained in accordance with the manufacturer's instructions. Assay Buffer is prepared fresh for screening and contains 50 μl of Stimulation Buffer, 3 ul of test compound (12 μM final assay concentration) and 50 μl cells, Assay Buffer is stored on ice until utilized. The assay is initiated by addition of 50 μl of cAMP standards to appropriate wells followed by addition of 50 ul of PBSA to wells H-11 and H12. 50 μl of Stimulation Buffer is added to all wells. DMSO (or selected candidate compounds) is added to appropriate wells using a pin tool capable of dispensing 3 μl of compound solution, with a final assay concentration of 12 μM test compound and 100 μl total assay volume. The cells are then added to the wells and incubated for 60 min at room temperature. 100 μl of Detection Mix containing tracer cAMP is then added to the wells. Plates are then incubated additional 2 hours followed by counting in a Wallac MicroBeta scintillation counter. Values of cAMP/well are then extrapolated from a standard cAMP curve which is contained within each assay plate.
In FIG. 6, agonist activity was determined through adenylate cyclase activity. […] Samples were then assessed for the level of intracellular cAMP as described in Example 4, supra.

Test [2] concerns the target T1, FPRL2. The test is described as follows: IP3 assay, HEK293 cells transiently transfected with FPRL2 and Gα16. The class given is cell-based. Further details: expressed in transfected cells; host or cells: HEK293 cells, transient, lipofectamine. To be noted: FIG. 8. The method, then:
On day 1, cells comprising the receptors (endogenous and/or non-endogenous) can be plated onto 24 well plates, usually 1×10^5 cells/well (although his umber can be optimized. On day 2 cells can be transfected by firstly mixing 0.25 μg DNA in 50 μl serum free DMEM/well and 2 μl lipofectamine in 50 μl serum free DMEM/well. The solutions are gently mixed and incubated for 15-30 min at room temperature. Cells are washed with 0.5 ml PBS and 400 μl of serum free media is mixed with the transfection media and added to the cells. The cells are then incubated for 3-4 […] at 37° C./5% CO2 and then the transfection media is removed and replaced with 1 ml/well of regular growth media. On day 3 the cells are labeled with ^3H-myo-inositol. Briefly, the media is removed and the cells are washed with 0.5 ml PBS. Then 0.5 ml inositol-free/serum free media (GIBCO BRL) is added/well with 0.25 μCi of ^3H-myo-inositol/well and the cells are incubated for 16-18 hrs o/n at 37° C./5% CO2. On Day 4 the cells are washed with 0.5 ml PBS and 0.45 ml of assay medium is added containing inositol-free/serum free media 10 μM pargyline 10 mM lithium chloride or 0.4 ml of assay medium and 50 μl of 10× ketanserin (ket) to final concentration of 10 μM. The cells are then incubated for 30 min at 37° C. The cells are then washed with 0.5 ml PBS and 200 μl of fresh/ice cold stop solution (1M KOH; 18 mM Na-borate; 3.8 mM EDTA) is added/well. The solution is kept on ice for 5-10 min or until cells were lysed and then neutralized by 200 μl of fresh/ice cold neutralization sol. (7.5% HCL). The lysate is then transferred into 1.5 ml eppendorf tubes and 1 ml of chloroform/methanol (1:2) is added/tube. The solution is vortexed for 15 sec and the upper phase is applied to a Biorad AG1-X8™ anion exchange resin (100-200 mesh). […]
Briefly, HEK293 cells were transiently transfected with 6 μg FPRL2 plasmid DNA and 6 μg Gα16 plasmid DNA per 10^7 cells per 15 cm culture dish using lipofectamine (Invitrogen). […] The level of intracellular IP3 was determined as described in Example 4, supra.

In the case of `CC(C)c1ccc2c(c1)CCC1C(C)(C(N)=O)CCCC21C` (stereo not shown) [Compound 1, 7-Isopropyl-1,4a-dimethyl-1,2,3,4,4a,9,10,10a-octahydro-phenanthrene-1-carboxylic acid amide], the “Agonist activity at FPRL2, intracellular cAMP” value (“Agonist activity at FPRL2” for short) on FPRL2 [1] is on record as “selectively an agonist of FPRL2”. Further, at FPRL2 [2], the “Level of intracellular IP3 (FPRL2 coupling to Gα16)” value (from here on “Level of intracellular IP3”) is reported as “dose-dependent elevation of the level of intracellular IP3”.
Consider `CC[C@H](C)[C@H](NC(=O)[C@H](CCC(=O)O)NC(=O)[C@H](CO)NC(=O)[C@@H](NC(=O)[C@H](CC(C)C)NC(=O)[C@H](CC(C)C)NC(=O)[C@H](CC(C)C)NC(=O)[C@H](CC(C)C)NC(=O)[C@H](CS)NC(=O)[C@H](CO)NC(=O)[C@H](Cc1ccccc1)NC(=O)CNC(=O)[C@H](CCCNC(=N)N)NC(=O)[C@@H]1CCCN1C(=O)[C@H](C)NC(=O)[C@@H](N)CCSC)[C@@H](C)O)C(=O)N[C@@H](CC(=O)O)C(=O)N[C@@H](CC(C)C)C(=O)N1CCC[C@H]1C(=O)N[C@H](C(=O)N[C@@H](CCCCN)C(=O)N[C@@H](CCCNC(=N)N)C(=O)N[C@@H](CCCNC(=N)N)C(=O)N[C@@H](C)C(=O)O)C(C)C` [Humanin], for which the “Agonist activity at FPRL2” value is “agonists of both FPRL1 and FPRL2” on FPRL2 [1]; “agonists of both FPRL2 and FPRL1” on FPRL2 [1] (listed as Human). Further, the “Level of intracellular IP3” value on FPRL2 [2] is recorded as “dose-dependent elevation of the level of intracellular IP3”.
Consider “MAPRGFSCLLLLTGEIDLPVKRRA [[Gly14]-Humanin]”, for which the “Agonist activity at FPRL2” value at FPRL2 [1] was “agonists of both FPRL1 and FPRL2; also recorded: agonists of both FPRL2 and FPRL1”. For the same molecule, at FPRL2 [2], the “Level of intracellular IP3” value is “dose-dependent elevation of the level of intracellular IP3”.
